Laboratory results reported in patent publication US20150291610A1, “C20' Urea Derivatives of Vinca Alkaloids” (THE SCRIPPS RESEARCH INSTITUTE, priority 2012, published 2015).
Where two headings read alike, the source gives them in different places. Values belong to the molecule of their own block, whether it stands above or below them.

Key:
[1] = system: L1210 (mouse lymphocytic leukemia) cells; assay: Cell growth inhibition assay, L1210; format: cell-based; settings: L1210 murine leukemia cell line; avg of 4-16 determinations
Experimental: (§1) A population of cells (>1×10^6 cells/mL as determined with a hemocytometer) was diluted with an appropriate amount of Dulbecco-modified Eagle Medium (DMEM, Gibco) containing 10% fetal bovine serum (FBS, Gibco) to a final concentration of 30,000 cells/mL.
(§2) To each well of a 96-well plate (Corning Costar), 100 μL of the cell-media solution was added with a multichannel pipette. The cultures were incubated at 37° C. in an atmosphere of 5% CO2 and 95% humidified air for 24 hours. The test compounds were added to the plate as follows: test substances were diluted in DMSO to a concentration of 1 mM and 10-fold serial dilutions were performed on a separate 96-well plate. Fresh culture medium (100 μL) was added to each well of cells to constitute 200 μL of medium per well followed by 2 μL of each test agent. Compounds were tested in duplicate (n=2-8 times) at six concentrations between 0-1,000 nM or 0-10,000 nM. Following addition, cultures were incubated for an additional 72 hours.
(§3) The plates were incubated at 37° C. for either 5 minutes (L1210) or 15 minutes (HCT116 and HCT116/VM46).

[2] = system: HCT116 (human colorectal carcinoma) cells; assay: Cell growth inhibition assay, HCT116; format: cell-based
Experimental: as §1, §2, §3

[3] = system: HCT116/VM46 (vinblastine-resistant strain of HCT116, Pgp over-expression) cells; assay: Cell growth inhibition assay, HCT116/VM46
Experimental: as §1, §2, §3

porcine tubulin = molecular target: T1, porcine tubulin (Sus scrofa, UniProt P02550+P02554); format: binding; settings: for tubulin binding affinity compared with vinblastine: in words
T1 construct: purified porcine tubulin; purchased Cytoskeleton, Inc
T1 sequence (P02550 whole entry): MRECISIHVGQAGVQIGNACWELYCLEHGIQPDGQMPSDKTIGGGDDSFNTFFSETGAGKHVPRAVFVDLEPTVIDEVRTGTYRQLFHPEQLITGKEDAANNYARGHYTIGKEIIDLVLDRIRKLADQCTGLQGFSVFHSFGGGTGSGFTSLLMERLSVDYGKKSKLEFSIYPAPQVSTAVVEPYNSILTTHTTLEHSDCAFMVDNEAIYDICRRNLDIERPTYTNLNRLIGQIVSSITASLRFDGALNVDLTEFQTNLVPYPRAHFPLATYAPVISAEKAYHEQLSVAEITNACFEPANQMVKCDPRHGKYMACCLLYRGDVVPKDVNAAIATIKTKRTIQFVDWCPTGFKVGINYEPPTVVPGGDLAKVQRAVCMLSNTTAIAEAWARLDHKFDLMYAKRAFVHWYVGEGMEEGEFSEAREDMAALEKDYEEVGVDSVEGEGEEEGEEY
T1 sequence (P02554 whole entry): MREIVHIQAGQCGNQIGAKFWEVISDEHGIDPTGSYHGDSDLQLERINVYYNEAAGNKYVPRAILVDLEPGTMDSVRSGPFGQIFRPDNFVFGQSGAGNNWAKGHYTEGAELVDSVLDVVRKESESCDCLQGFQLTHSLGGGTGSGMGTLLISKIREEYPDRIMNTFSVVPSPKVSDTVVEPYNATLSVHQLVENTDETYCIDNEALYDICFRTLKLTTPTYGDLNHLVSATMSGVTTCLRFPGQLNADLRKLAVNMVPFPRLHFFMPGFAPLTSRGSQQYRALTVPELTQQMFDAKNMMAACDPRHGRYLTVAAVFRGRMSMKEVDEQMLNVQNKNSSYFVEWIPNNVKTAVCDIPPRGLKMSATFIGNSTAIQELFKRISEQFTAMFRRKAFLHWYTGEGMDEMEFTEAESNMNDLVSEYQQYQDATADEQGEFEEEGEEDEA
From the text: [Owellen et al., Biochem. Pharmacol. 1977 26:1213-1219.] […] Millipore Steriflip® filter units were used to wash the filter paper with buffer under mild suction.

[4] = system: L1210 (mouse lymphocytic leukemia) cells; settings: reported in Leggans et al., Org. Lett. 2012; cited from earlier work
[5] = system: HCT116 (human colorectal carcinoma) cells; settings: reported in Leggans et al., Org. Lett. 2012; cited from earlier work
[6] = system: HCT116/VM46 (vinblastine-resistant strain of HCT116, Pgp over-expression) cells; settings: read-out: IC50 (nM) HCT116/VM46; reported in Leggans et al., Org. Lett. 2012; cited from earlier work
[7] = system: AU565 (Breast, overexpression of her2/neu); assay: 15-cell line panel, independent laboratory: AU565; format: cell-based, human
NCI-H520 (Lung) = assay: 15-cell line panel: NCI-H520; format: cell-based, human; settings: independent laboratory panel
[8] = system: HCC1143 (Breast, triple negative); assay: 15-cell line panel: HCC1143; format: cell-based, human; settings: independent laboratory panel
[9] = system: HCC70 (Breast, overexpression of p53); assay: 15-cell line panel: HCC70; format: cell-based, human; settings: independent laboratory panel
[10] = system: KPL4 (Breast, overexpression of erbB2); assay: 15-cell line panel: KPL4; format: cell-based, human; settings: independent laboratory panel
LNCaP-FGC (Prostate) = assay: 15-cell line panel: LNCaP-FGC; format: cell-based, human; settings: independent laboratory panel
[11] = system: LS174T (Colon, high levels of MUC2 mRNA); assay: 15-cell line panel: LS174T; format: cell-based, human; settings: independent laboratory panel
[12] = system: MCF-7 (Breast, overexpression of her2/neu); assay: 15-cell line panel: MCF-7; format: cell-based, human; settings: independent laboratory panel; > = highest concentration tested
[13] = system: MDA-MB-468 (Breast, triple negative, amplified EGFR); assay: 15-cell line panel: MDA-MB-468; format: cell-based, human; settings: independent laboratory panel
[14] = system: SW403 (Colon, KRAS^G12V mutation); assay: 15-cell line panel: SW403; format: cell-based, human; settings: independent laboratory panel
[15] = system: T47D (Breast, mutant p53); assay: 15-cell line panel: T47D; format: cell-based, human; settings: independent laboratory panel
[16] = system: ZR-75-1 (Breast, overexpression of her2); assay: 15-cell line panel: ZR-75-1; format: cell-based, human; settings: independent laboratory panel
[17] = system: PA-1 (Ovary, overexpression of AIB1); assay: 15-cell line panel: PA-1; format: cell-based, human; settings: independent laboratory panel
[18] = system: HCT116/VM46 (Colon, vinblastine resistant); assay: 15-cell line panel: HCT116/VM46; format: cell-based, human; settings: independent laboratory panel; for IC50: > = highest concentration tested
HCT116 (Colon) = assay: 15-cell line panel: HCT116; format: cell-based, human; settings: independent laboratory panel
[19] = system: human tumor 15-cell line panel; assay: Human tumor 15-cell line panel, whole panel (averages, ranges); format: cell-based; settings: for average IC50 value in human tumor cell line panel: comparative average
[20] = HCT116 human colon cancer cell line, avg of 4-16 determinations, read-out: IC50 (nM) HCT116
[21] = read-out: IC50 (nM) HCT116/VM46, resistant human colon cancer cell line, Pgp over-expression
[22] = ligand vs [^3H]VBL (1:1), normalized to VLB + [^3H]VLB = 50.0%

SMILES: CCC1(NC(=O)N(C)C)CC2CN(CCc3c([nH]c4ccccc34)C(C(=O)OC)(c3cc4c(cc3OC)N(C)C3C(O)(C(=O)OC)C(OC(C)=O)C5(CC)C=CCN6CCC43C65)C2)C1 (centres unmarked) [Compound 39]
- IC50 [1]: 5.9 nM
- IC50 [2, 20]: 2.8 nM
- fold more potent than vinblastine, HCT116 ([2]; relative to vinblastine): 3 fold
- activity difference between sensitive HCT116 and vinblastine-resistant HCT116/VM46 ([3]; HCT116/VM46 vs HCT116): 10 fold
- IC50 [3, 21]: 80 nM
- % ^3H-vinblastine remaining bound (porcine tubulin): 45.1 ± 3.5%
- tubulin binding affinity compared with vinblastine (porcine tubulin): slightly better affinity than vinblastine

SMILES: CC[C@]1(N)C[C@H]2CN(CCc3c([nH]c4ccccc34)[C@@](C(=O)OC)(c3cc4c(cc3OC)N(C)[C@H]3[C@@](O)(C(=O)OC)[C@H](OC(C)=O)[C@]5(CC)C=CCN6CC[C@]43[C@@H]65)C2)C1 [Compound 7, 20′-aminovinblastine]
- IC50 [2, 20]: 600 nM
- IC50 [3, 21]: > 10000 nM
- IC50 [4]: 640 nM
- IC50 [5]: 600 nM
- IC50 [6]: > 10000 nM

SMILES: CCC1(NC(=O)Nc2ccc(-c3ccccc3)cc2)C[C@H]2CN(CCc3c([nH]c4ccccc34)[C@@](C(=O)OC)(c3cc4c(cc3OC)N(C)[C@H]3C(O)(C(=O)OC)[C@H](OC(C)=O)[C@]5(CC)C=CCN6CC[C@]43[C@@H]65)C2)C1 (some centres unmarked) [Compound 35]
- IC50 ([2]; Homo sapiens, HCT-116, read-out: IC50 (nM) HCT116): 6.9 nM
- IC50 ([3]; Homo sapiens, HCT-116/VM46, read-out: IC50 (nM) HCT116/VM46): 470 nM
- tubulin binding affinity compared with vinblastine (porcine tubulin): affinity matching or even slightly exceeding that of vinblastine
- % ^3H-vinblastine remaining bound (porcine tubulin; [22]): 48.5 ± 6.9%

SMILES: CC[C@]1(O)C[C@@H]2CN(CCc3c([nH]c4ccccc34)[C@@](C(=O)OC)(c3cc4c(cc3OC)N(C)[C@H]3[C@@](O)(C(=O)OC)[C@H](OC(C)=O)[C@]5(CC)C=CCN6CC[C@]43[C@@H]65)C2)C1 [Vinblastine (1), Vinblastine, reference compound]
- IC50 [1]: 6 nM
- IC50 [3, 21]: 600 nM
- % ^3H-vinblastine remaining bound (porcine tubulin): 50.0%
- IC50 [7]: 4 nM
- IC50 (NCI-H520 (Lung)): 4.5 nM
- IC50 [8]: 3.8 nM
- IC50 [9]: 3.5 nM
- IC50 [10]: 2.9 nM
- IC50 (LNCaP-FGC (Prostate); read-out: IC50 (nM) LNCaP-FGC): 5.1 nM
- IC50 [11]: 19.6 nM
- IC50 [12]: > 110 nM
- IC50 [13]: 4.6 nM
- IC50 [14]: 7.9 nM
- IC50 [15]: 5 nM
- IC50 [16]: 8 nM
- IC50 [17]: 4.6 nM
- IC50 [18]: > 110 nM
- IC50 [4]: 6 nM
- IC50 [6]: 600 nM

SMILES: CC[C@]1(NC(=O)N2Cc3ccccc3C2)C[C@@H]2CN(CCc3c([nH]c4ccccc34)[C@@](C(=O)OC)(c3cc4c(cc3OC)N(C)[C@H]3[C@@](O)(C(=O)OC)[C@H](OC(C)=O)[C@]5(CC)C=CCN6CC[C@]43[C@@H]65)C2)C1 [Compound 58]
- IC50 [1]: 0.51 nM
- IC50 [2, 20]: 0.6 nM
- IC50 [3, 21]: 7.5 nM
- tubulin binding affinity compared with vinblastine (porcine tubulin): higher affinity than vinblastine
- % ^3H-vinblastine remaining bound (porcine tubulin; [22]): 41.2%
- IC50 [7]: 0.11 nM
- IC50 (NCI-H520 (Lung)): 0.1 nM
- IC50 [8]: 0.09 nM
- IC50 [9]: 0.04 nM
- IC50 (HCT116 (Colon)): 0.16 nM
- IC50 [10]: 0.04 nM
- IC50 (LNCaP-FGC (Prostate); read-out: IC50 (nM) LNCaP-FGC): 0.24 nM
- IC50 [11]: 0.45 nM
- IC50 [12]: > 12.5 nM
- IC50 [13]: 0.39 nM
- IC50 [14]: 0.45 nM
- IC50 [15]: 0.41 nM
- IC50 [16]: 0.45 nM
- IC50 [17]: 0.11 nM
- differential of HCT116/VM46 from sensitive HCT116 in panel [18]: 20 fold
- IC50 [18]: 3.5 nM
- average enhancement over the activity of vinblastine in panel [19]: 30 fold
- average IC50 value in human tumor cell line panel [19]: 0.2 nM
- IC50 ([19]; range over cell lines, read-out: IC50 values across the panel): 0.04 to 0.45 nM

- IC50 [1]: 40 nM
- IC50 [2, 20]: 7.5 nM
SMILES: CC[C@]1(NC(N)=O)C[C@@H]2CN(CCc3c([nH]c4ccccc34)[C@@](C(=O)OC)(c3cc4c(cc3OC)N(C)[C@H]3[C@@](O)(C(=O)OC)[C@H](OC(C)=O)[C@]5(CC)C=CCN6CC[C@]43[C@@H]65)C2)C1 [Compound 11, reference compound]
- IC50 [3]: 4400 nM
- IC50 [4]: 40 nM
- IC50 [5]: 7.5 nM
- IC50 [6]: 4400 nM

SMILES: CCC1(NC(=O)N2CCc3ccccc3C2)CC2CN(CCc3c([nH]c4ccccc34)C(C(=O)OC)(c3cc4c(cc3OC)N(C)C3C(O)(C(=O)OC)C(OC(C)=O)C5(CC)C=CCN6CCC43C65)C2)C1 (centres unmarked) [Compound 57]
- IC50 [1]: 0.62 nM
- IC50 [2, 20]: 0.56 nM
- IC50 [3, 21]: 8.7 nM
- tubulin binding affinity compared with vinblastine (porcine tubulin): higher affinity than vinblastine
- IC50 [7]: 0.13 nM
- IC50 (NCI-H520 (Lung)): 0.14 nM
- IC50 [8]: 0.16 nM
- IC50 [9]: 0.13 nM
- IC50 (HCT116 (Colon)): 0.26 nM
- IC50 [10]: 0.06 nM
- IC50 (LNCaP-FGC (Prostate); read-out: IC50 LNCaP-FGC): 0.02 nM
- IC50 [11]: 0.3 nM
- IC50 [12]: 2.1 nM
- IC50 [13]: 0.12 nM
- IC50 [14]: 1.2 nM
- IC50 [15]: 0.55 nM
- IC50 [16]: 0.52 nM
- IC50 [17]: 0.19 nM
- IC50 [18]: 6.6 nM
- average enhancement over the activity of vinblastine in panel [19]: 30 fold
- average IC50 value in human tumor cell line panel [19]: 0.2 nM
